The values that follow come from ChEMBL document CHEMBL2150850, “Recent advances in the development of selective human MAO-B inhibitors: (hetero)arylidene-(4-substituted-thiazol-2-yl)hydrazines” (Eur J Med Chem, 2012).

SMILES strings stand for the structures.

For one data set, the species on record is Homo sapiens. The data set is described as follows: Selectivity ratio of IC50 for human MAO-A to IC50 for human MAO-B.
The target of data set [1] is T1, Amine oxidase [flavin-containing] B (Homo sapiens, UniProt P27338).
T1 sequence (P27338 whole entry): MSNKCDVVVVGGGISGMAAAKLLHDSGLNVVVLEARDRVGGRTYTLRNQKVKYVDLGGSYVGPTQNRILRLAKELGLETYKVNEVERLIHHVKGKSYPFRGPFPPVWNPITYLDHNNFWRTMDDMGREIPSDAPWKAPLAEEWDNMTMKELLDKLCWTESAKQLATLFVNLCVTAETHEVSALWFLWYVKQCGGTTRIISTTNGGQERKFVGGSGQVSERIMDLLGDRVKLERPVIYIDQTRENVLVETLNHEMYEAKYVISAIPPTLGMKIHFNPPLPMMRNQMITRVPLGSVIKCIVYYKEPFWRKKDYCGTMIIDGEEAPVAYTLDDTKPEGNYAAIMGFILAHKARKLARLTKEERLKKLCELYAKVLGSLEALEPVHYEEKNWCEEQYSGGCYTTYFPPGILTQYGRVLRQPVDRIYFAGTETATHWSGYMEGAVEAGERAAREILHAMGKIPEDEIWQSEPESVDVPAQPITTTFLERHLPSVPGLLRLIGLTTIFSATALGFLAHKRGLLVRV
As to the kind of experiment: biochemical. Type of data set: cell-based, BTI-TN-5B1-4.
Description: Inhibition of human MAO-B expressed in baculovirus infected BTI-TN-5B1-4 cells using p-tyramine as substrate incubated for 15 mins prior to substrate addition measured for 15 mins by Amplex red assay

The target in data set [2] is T2, Amine oxidase [flavin-containing] A (Homo sapiens, UniProt P21397).
T2 sequence (P21397 whole entry): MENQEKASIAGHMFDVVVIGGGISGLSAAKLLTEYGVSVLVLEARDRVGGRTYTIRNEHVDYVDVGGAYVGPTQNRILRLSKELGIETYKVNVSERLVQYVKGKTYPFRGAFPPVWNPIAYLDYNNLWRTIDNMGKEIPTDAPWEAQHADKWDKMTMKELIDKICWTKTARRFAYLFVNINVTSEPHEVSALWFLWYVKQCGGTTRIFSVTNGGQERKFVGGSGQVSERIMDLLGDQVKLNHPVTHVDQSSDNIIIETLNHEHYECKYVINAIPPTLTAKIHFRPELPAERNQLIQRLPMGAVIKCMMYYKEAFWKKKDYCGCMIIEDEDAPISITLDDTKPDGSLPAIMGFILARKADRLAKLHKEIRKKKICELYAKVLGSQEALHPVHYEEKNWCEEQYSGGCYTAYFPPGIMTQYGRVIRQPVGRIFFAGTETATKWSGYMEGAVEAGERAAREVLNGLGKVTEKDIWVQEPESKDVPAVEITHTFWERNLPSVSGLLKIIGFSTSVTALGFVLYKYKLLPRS
As to the kind of experiment: Inhibition of human MAO-A expressed in baculovirus infected BTI-TN-5B1-4 cells using p-tyramine as substrate at 100 uM incubated for 15 mins prior to substrate addition measured for 15 mins by Amplex red assay. The conditions noted are these: for inhibition at 100 µM: BTI-TN-5B1-4, human, 0.25 h; for inhibition (INH): human, bti-tn-5b1-4, 0.25 h, 100 µM.

Data set [3] concerns the target T1, Amine oxidase [flavin-containing] B. As to the kind of experiment: Inhibition of human MAO-B expressed in baculovirus infected BTI-TN-5B1-4 cells using p-tyramine as substrate at 100 uM incubated for 15 mins prior to substrate addition measured for 15 mins by Amplex red assay. The following applies: for inhibition (INH): human, bti-tn-5b1-4, 0.25 h, 100 µM; for inhibition at 100 µM: BTI-TN-5B1-4, human, 0.25 h.

Take `C/C(=N/Nc1nc(-c2ccc(C#N)cc2)cs1)c1cccs1`: in the data set filed under Homo sapiens, the Ratio IC50 is > 32. In data set [1], the IC50 amounted to 3.11 µM. 100 µM produced 40% inhibition in data set [2].
For `C/C(=N/Nc1nc(-c2ccc(F)cc2)cs1)c1ccncc1`, in that order: > 39400, 0.00254 µM and 40%.
In the same order, the values of `C/C(=N/Nc1nc(-c2ccc(F)cc2)cs1)c1cccs1` are > 6460, 0.0155 µM and 40%.
Take `C/C(=N/Nc1nc(-c2ccc([N+](=O)[O-])cc2)cs1)c1cccs1`: the IC50 in data set [1] came out at 0.298 µM. Further, in data set [2], the “inhibition (INH)” value is recorded as “Not Active”.
As for `Fc1ccc(-c2csc(N/N=C\c3ccco3)n2)cc1`, the Ratio IC50 in the data set filed under Homo sapiens was > 153. The same compound registered a 50% inhibitory concentration (IC50) in data set [1] of 0.653 µM. Besides, the inhibition at 100 µM in data set [2] was 40%.
For `N#Cc1ccc(-c2csc(N/N=C\c3cccc4ccccc34)n2)cc1`, in that order: > 91, 1.1 µM and 40%.
`C/C(=N/Nc1nc(-c2ccc([N+](=O)[O-])cc2)cs1)c1cc2ccccc2oc1=O`: the “inhibition (INH)” value in data set [3] and in data set [2] was “Not Active” each time.
On to `Fc1ccc(-c2csc(N/N=C\c3ccc4c(c3)OCO4)n2)cc1`, for which the Ratio IC50 in the data set listed under Homo sapiens was > 93. This compound showed an IC50 in data set [1] of 1.08 µM. Further, in data set [2], the inhibition at 100 µM was 40%.
For `N#Cc1ccc(-c2csc(N/N=C\c3ccco3)n2)cc1`, in that order: > 67, 1.49 µM and 40%.
In the case of `Fc1ccc(-c2csc(N/N=C\c3cccc4ccccc34)n2)c(F)c1`, in the data set listed under Homo sapiens, the Ratio IC50 was > 727. Moreover, the 50% inhibitory concentration (IC50) in data set [1] was 0.138 µM. Besides, the inhibition at 100 µM in data set [2] amounted to 40%.
As to `O=[N+]([O-])c1ccc(-c2csc(N/N=C\c3ccc4c(c3)OCO4)n2)cc1`, the “inhibition (INH)” value in data set [3] and in data set [2] was “Not Active” each time.
With `C/C(=N/Nc1nc(-c2ccc(C#N)cc2)cs1)c1cc2ccccc2oc1=O`, the “inhibition (INH)” value in data set [3] and in data set [2] was “Not Active” in each case.
Consider `C/C(=N/Nc1nc(-c2ccc(F)cc2F)cs1)c1cccnc1`, for which the Ratio IC50 in the data set listed under Homo sapiens is > 5430. This compound also yielded a half-maximal inhibitory concentration (IC50) in data set [1] of 0.0184 µM. For the same compound, the inhibition at 100 µM in data set [2] was 40%.
For `Fc1ccc(-c2csc(N/N=C\c3cccnc3)n2)cc1`, in that order: > 207, 0.482 µM and 40%.
In the case of `C/C(=N/Nc1nc(-c2ccc(C#N)cc2)cs1)c1ccccc1`, the inhibition at 100 µM in data set [3] and in data set [2] was 40% in each case.
Turning to `N#Cc1ccc(-c2csc(N/N=C\c3ccc4c(c3)OCO4)n2)cc1`, in the data set listed under Homo sapiens, the Ratio IC50 was > 332. For the same compound, in data set [1], inhibition was half-maximal at 0.301 µM (IC50). For the same compound, in data set [2], the inhibition at 100 µM came out at 40%.
`C/C(=N/Nc1nc(-c2ccc([N+](=O)[O-])cc2)cs1)c1ccco1`: the half-maximal inhibitory concentration (IC50) in data set [1] was found to be 3.59 µM. In data set [2], this compound displayed an inhibition at 100 µM of 40%.
Take `O=[N+]([O-])c1ccc(-c2csc(N/N=C\c3ccco3)n2)cc1`: the inhibition at 100 µM in data set [3] and in data set [2] was 40% in each case.
For `Fc1ccc(-c2csc(N/N=C\c3c[nH]c4ccccc34)n2)cc1`, in the data set listed under Homo sapiens, the Ratio IC50 is > 173. In addition, inhibition in data set [1] was half-maximal at 0.578 µM (IC50). In addition, 100 µM produced 40% inhibition in data set [2].
For `O=[N+]([O-])c1ccc(-c2csc(N/N=C\c3cccs3)n2)cc1`, the inhibition at 100 µM in data set [3] and in data set [2] was 40% throughout.
Take `Fc1ccc(-c2csc(N/N=C\c3cccs3)n2)c(F)c1`: the Ratio IC50 in the data set filed under Homo sapiens was > 6030. Further, the IC50 in data set [1] was 0.0166 µM. The compound further came in with an inhibition at 100 µM in data set [2] of 40%.
In data set [3], `C/C(=N/Nc1nc(-c2ccc(F)cc2F)cs1)c1ccc2ccccc2c1` gave an inhibition at 100 µM of 40%. Further, in data set [2], the “inhibition (INH)” value is “Not Active”.
`C/C(=N/Nc1nc(-c2ccc(F)cc2F)cs1)c1cccs1`: in the data set listed under Homo sapiens, the Ratio IC50 is > 33200. For the same compound, the 50% inhibitory concentration (IC50) in data set [1] turned out to be 0.00301 µM. The inhibition at 100 µM in data set [2] was found to be 40%.
For `Fc1ccc(-c2csc(N/N=C\c3cccc4ccccc34)n2)cc1`, in that order: > 7.8, 12.8 µM and 40%.
For `Fc1ccc(-c2csc(N/N=C\c3ccc4c(c3)OCO4)n2)c(F)c1`, in that order: > 85, 1.17 µM and 40%.
For `O=C(NCCN1CCOCC1)c1ccc(Cl)cc1` [MOCLOBEMIDE], the “inhibition (INH)” value in data set [3] was “Not Active”.
Consider `C/C(=N/Nc1nc(-c2ccc(F)cc2F)cs1)c1ccncc1`, for which, in the data set listed under Homo sapiens, the Ratio IC50 is > 5990. Half-maximal inhibition in data set [1] (IC50) required 0.0167 µM. Moreover, in data set [2], 100 µM produced 40% inhibition.
Take `C/C(=N/Nc1nc(-c2ccc(F)cc2F)cs1)c1cc2ccccc2oc1=O`: in the data set filed under Homo sapiens, the Ratio IC50 was > 70. The compound further registered an IC50 in data set [1] of 1.42 µM. In data set [2], the “inhibition (INH)” value was “Not Active”.
With `Fc1ccc(-c2csc(N/N=C\c3cccnc3)n2)c(F)c1`, in the data set filed under Homo sapiens, the Ratio IC50 was > 504. In data set [1], this compound displayed a half-inhibitory concentration (IC50) of 0.199 µM. Also, at 100 µM the inhibition in data set [2] was 40%.
In the case of `O=[N+]([O-])c1ccc(-c2csc(N/N=C\c3cccnc3)n2)cc1`, the “inhibition (INH)” value in data set [3] and in data set [2] was “Not Active” in each case.
On to `C/C(=N/Nc1nc(-c2ccc([N+](=O)[O-])cc2)cs1)c1cccnc1`, for which the “inhibition (INH)” value in data set [3] and in data set [2] was “Not Active” throughout.
`C/C(=N/Nc1nc(-c2ccc(C#N)cc2)cs1)c1cccnc1`: the Ratio IC50 in the data set filed under Homo sapiens is > 47800. The IC50 in data set [1] is 0.00209 µM. The compound also gave an inhibition at 100 µM in data set [2] of 40%.
As to `C/C(=N/Nc1nc(-c2ccc([N+](=O)[O-])cc2)cs1)c1ccncc1`, the Ratio IC50 in the data set filed under Homo sapiens is > 7620. This compound yielded a concentration for half-maximal inhibition (IC50) in data set [1] of 0.0131 µM. Moreover, in data set [2], the “inhibition (INH)” value was “Not Active”.
In the case of `N#Cc1ccc(-c2csc(N/N=C\c3cccnc3)n2)cc1`, the Ratio IC50 in the data set listed under Homo sapiens is > 106. Moreover, the IC50 in data set [1] came to 0.947 µM. In addition, in data set [2], 100 µM produced 40% inhibition.
Consider `O=[N+]([O-])c1ccc(-c2csc(N/N=C\c3cccc4ccccc34)n2)cc1`, for which the “inhibition (INH)” value in data set [3] and in data set [2] was “Not Active” each time.
`N#Cc1ccc(-c2csc(N/N=C\c3c[nH]c4ccccc34)n2)cc1`: the Ratio IC50 in the data set listed under Homo sapiens is > 131. Further, in data set [1], the IC50 was determined as 0.762 µM. For the same compound, the “inhibition (INH)” value in data set [2] is on record as “Not Active”.
For the compound `O=[N+]([O-])c1ccc(-c2csc(N/N=C\c3ccncc3)n2)cc1`, the “inhibition (INH)” value in data set [3] and in data set [2] was “Not Active” in each case.
On to `Fc1ccc(-c2csc(N/N=C\c3ccncc3)n2)c(F)c1`, for which the Ratio IC50 in the data set listed under Homo sapiens was > 182. In data set [1], this compound returned an IC50 of 0.549 µM. In data set [2], the “inhibition (INH)” value was “Not Active”.
Consider `C/C(=N/Nc1nc(-c2ccc(F)cc2F)cs1)c1ccco1`, for which the Ratio IC50 in the data set listed under Homo sapiens is > 2490. The IC50 in data set [1] worked out at 0.0401 µM. Moreover, the inhibition at 100 µM in data set [2] stood at 40%.
In the same order, the values of `Fc1ccc(-c2csc(N/N=C\c3cccs3)n2)cc1` are > 295, 0.338 µM and 40%.
`C/C(=N/Nc1nc(-c2ccc(F)cc2)cs1)c1cc2ccccc2oc1=O`: the “inhibition (INH)” value in data set [3] and in data set [2] was “Not Active” in each case.
As for `C/C(=N/Nc1nc(-c2ccc([N+](=O)[O-])cc2)cs1)c1ccccc1`, the inhibition at 100 µM in data set [3] and in data set [2] was 40% in each case.
As for `O=[N+]([O-])c1ccc(-c2csc(N/N=C\c3c[nH]c4ccccc34)n2)cc1`, the “inhibition (INH)” value in data set [3] and in data set [2] was “Not Active” each time.
Turning to `Fc1ccc(-c2csc(N/N=C\c3ccncc3)n2)cc1`, the Ratio IC50 in the data set listed under Homo sapiens was > 890. The compound further displayed a 50% inhibitory concentration (IC50) in data set [1] of 0.112 µM. In data set [2], the inhibition at 100 µM came to 40%.
`C/C(=N/Nc1nc(-c2ccc(C#N)cc2)cs1)c1ccc2ccccc2c1` yielded an inhibition at 100 µM in data set [3] of 40%. Further, the “inhibition (INH)” value in data set [2] was “Not Active”.
For the compound `C/C(=N/Nc1nc(-c2ccc(C#N)cc2)cs1)c1ccco1`, the inhibition at 100 µM in data set [3] and in data set [2] was 40% each time.

A word on the IC50: it is the concentration that inhibits the measured activity by half. Read a high IC50 as lower potency. For orientation: inhibition means the change of the read-out against control, counted positive when it falls. Higher therefore signals a strong effect.
